# Data as given in PubChem BioAssay (NCI).
#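 Here, GI50 denotes the concentration required for 50% inhibition of growth. Definition used: TGI = concentration required for complete inhibition of growth.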
# Experiments:
# Assay in all cases: growth of human tumour cells (NCI), 384-well format
# HL-60(TB) leukemia = test system: HL-60(TB) leukemia
# UACC-62 melanoma = test system: UACC-62 melanoma
# SN12C renal = test system: SN12C renal
# OVCAR-3 ovarian = test system: OVCAR-3 ovarian
# HOP-62 NSCLC = test system: HOP-62 NSCLC
# MDA-MB-231 breast = test system: MDA-MB-231 breast
# T-47D breast = test system: T-47D breast
# UACC-257 melanoma = test system: UACC-257 melanoma
# NCI-H322M lung = test system: NCI-H322M lung
# HCC-2998 colon = test system: HCC-2998 colon
# HCT-15 colon = test system: HCT-15 colon
# RXF 393 renal = test system: RXF 393 renal
# A549 NSCLC = test system: A549 NSCLC
# A498 renal = test system: A498 renal
# HS 578T breast = test system: HS 578T breast
# CAKI-1 renal = test system: CAKI-1 renal
# NCI-H226 lung = test system: NCI-H226 lung
# SF-295 CNS = test system: SF-295 CNS
# M14 melanoma = test system: M14 melanoma
# 786-0 renal = test system: 786-0 renal
# MALME-3M melanoma = test system: MALME-3M melanoma
# SK-OV-3 ovarian = test system: SK-OV-3 ovarian
# SNB-19 CNS = test system: SNB-19 CNS
# NCI-H460 NSCLC = test system: NCI-H460 NSCLC
# MCF7 breast = test system: MCF7 breast
# UO-31 renal = test system: UO-31 renal
# BT-549 breast = test system: BT-549 breast
# U251 glioblastoma = test system: U251 glioblastoma
# SR leukemia = test system: SR leukemia
# NCI-H23 lung = test system: NCI-H23 lung
# PC-3 prostate = test system: PC-3 prostate
# SF-268 CNS = test system: SF-268 CNS
# NCI-H522 lung = test system: NCI-H522 lung
# SF-539 CNS = test system: SF-539 CNS
# HOP-92 NSCLC = test system: HOP-92 NSCLC
# LOX IMVI melanoma = test system: LOX IMVI melanoma
# TK-10 renal = test system: TK-10 renal
# SK-MEL-5 melanoma = test system: SK-MEL-5 melanoma
# MOLT-4 leukemia = test system: MOLT-4 leukemia
# SW-620 colon = test system: SW-620 colon
# COLO 205 colon = test system: COLO 205 colon
# OVCAR-8 ovarian = test system: OVCAR-8 ovarian
# OVCAR-4 ovarian = test system: OVCAR-4 ovarian
# SNB-75 CNS = test system: SNB-75 CNS
# IGROV1 ovarian = test system: IGROV1 ovarian
# EKVX NSCLC = test system: EKVX NSCLC
# MDA-MB-435 melanoma = test system: MDA-MB-435 melanoma
# RPMI-8226 leukemia = test system: RPMI-8226 leukemia
# HCT-116 colon = test system: HCT-116 colon
# KM12 colon = test system: KM12 colon
# MDA-MB-468 breast = test system: MDA-MB-468 breast
# HT29 colon = test system: HT29 colon
# DU-145 prostate = test system: DU-145 prostate
# ACHN renal = test system: ACHN renal
# OVCAR-5 ovarian = test system: OVCAR-5 ovarian
# NCI/ADR-RES ovarian = test system: NCI/ADR-RES ovarian
# SK-MEL-28 melanoma = test system: SK-MEL-28 melanoma
smiles,measurement,setting,value
Nc1cccc2c1CN(C1CCC(=O)NC1=O)C2=O (centres undefined),GI50,HL-60(TB) leukemia,> 100 µM
same,TGI,HL-60(TB) leukemia,> 100 µM
same,GI50,UACC-62 melanoma,> 100 µM
same,TGI,UACC-62 melanoma,> 100 µM
same,GI50,SN12C renal,> 100 µM
same,TGI,SN12C renal,> 100 µM
same,GI50,OVCAR-3 ovarian,> 100 µM
same,TGI,OVCAR-3 ovarian,> 100 µM
same,GI50,HOP-62 NSCLC,> 100 µM
same,TGI,HOP-62 NSCLC,> 100 µM
same,GI50,MDA-MB-231 breast,> 100 µM
same,TGI,MDA-MB-231 breast,> 100 µM
same,GI50,T-47D breast,> 100 µM
same,TGI,T-47D breast,> 100 µM
same,GI50,UACC-257 melanoma,> 100 µM
same,TGI,UACC-257 melanoma,> 100 µM
same,GI50,NCI-H322M lung,> 100 µM
same,TGI,NCI-H322M lung,> 100 µM
same,GI50,HCC-2998 colon,> 100 µM
same,TGI,HCC-2998 colon,> 100 µM
same,GI50,HCT-15 colon,> 100 µM
same,TGI,HCT-15 colon,> 100 µM
same,GI50,RXF 393 renal,> 100 µM
same,TGI,RXF 393 renal,> 100 µM
same,GI50,A549 NSCLC,> 100 µM
same,TGI,A549 NSCLC,> 100 µM
same,GI50,A498 renal,> 100 µM
same,TGI,A498 renal,> 100 µM
same,GI50,HS 578T breast,> 100 µM
same,TGI,HS 578T breast,> 100 µM
same,GI50,CAKI-1 renal,> 100 µM
same,TGI,CAKI-1 renal,> 100 µM
same,GI50,NCI-H226 lung,> 100 µM
same,TGI,NCI-H226 lung,> 100 µM
same,GI50,SF-295 CNS,> 100 µM
same,TGI,SF-295 CNS,> 100 µM
same,GI50,M14 melanoma,> 100 µM
same,TGI,M14 melanoma,> 100 µM
same,GI50,786-0 renal,> 100 µM
same,TGI,786-0 renal,> 100 µM
same,GI50,MALME-3M melanoma,> 100 µM
same,TGI,MALME-3M melanoma,> 100 µM
same,GI50,SK-OV-3 ovarian,> 100 µM
same,TGI,SK-OV-3 ovarian,> 100 µM
same,GI50,SNB-19 CNS,> 100 µM
same,TGI,SNB-19 CNS,> 100 µM
same,GI50,NCI-H460 NSCLC,> 100 µM
same,TGI,NCI-H460 NSCLC,> 100 µM
same,GI50,MCF7 breast,> 100 µM
same,TGI,MCF7 breast,> 100 µM
same,GI50,UO-31 renal,> 100 µM
same,TGI,UO-31 renal,> 100 µM
same,GI50,BT-549 breast,> 100 µM
same,TGI,BT-549 breast,> 100 µM
same,GI50,U251 glioblastoma,> 100 µM
same,TGI,U251 glioblastoma,> 100 µM
same,GI50,SR leukemia,> 100 µM
same,TGI,SR leukemia,> 100 µM
same,GI50,NCI-H23 lung,> 100 µM
same,TGI,NCI-H23 lung,> 100 µM
same,GI50,PC-3 prostate,> 100 µM
same,TGI,PC-3 prostate,> 100 µM
same,GI50,SF-268 CNS,> 100 µM
same,TGI,SF-268 CNS,> 100 µM
same,GI50,NCI-H522 lung,> 100 µM
same,TGI,NCI-H522 lung,> 100 µM
same,GI50,SF-539 CNS,> 100 µM
same,TGI,SF-539 CNS,> 100 µM
same,GI50,HOP-92 NSCLC,> 100 µM
same,TGI,HOP-92 NSCLC,> 100 µM
same,GI50,LOX IMVI melanoma,> 100 µM
same,TGI,LOX IMVI melanoma,> 100 µM
same,GI50,TK-10 renal,> 100 µM
same,TGI,TK-10 renal,> 100 µM
same,GI50,SK-MEL-5 melanoma,> 100 µM
same,TGI,SK-MEL-5 melanoma,> 100 µM
same,GI50,MOLT-4 leukemia,> 100 µM
same,TGI,MOLT-4 leukemia,> 100 µM
same,GI50,SW-620 colon,> 100 µM
same,TGI,SW-620 colon,> 100 µM
same,GI50,COLO 205 colon,> 100 µM
same,TGI,COLO 205 colon,> 100 µM
same,GI50,OVCAR-8 ovarian,> 100 µM
same,TGI,OVCAR-8 ovarian,> 100 µM
same,GI50,OVCAR-4 ovarian,> 100 µM
same,TGI,OVCAR-4 ovarian,> 100 µM
same,GI50,SNB-75 CNS,> 100 µM
same,TGI,SNB-75 CNS,> 100 µM
same,GI50,IGROV1 ovarian,> 100 µM
same,TGI,IGROV1 ovarian,> 100 µM
same,GI50,EKVX NSCLC,> 100 µM
same,TGI,EKVX NSCLC,> 100 µM
same,GI50,MDA-MB-435 melanoma,> 100 µM
same,TGI,MDA-MB-435 melanoma,> 100 µM
same,GI50,RPMI-8226 leukemia,> 100 µM
same,TGI,RPMI-8226 leukemia,> 100 µM
same,GI50,HCT-116 colon,> 100 µM
same,TGI,HCT-116 colon,> 100 µM
same,GI50,KM12 colon,> 100 µM
same,TGI,KM12 colon,> 100 µM
same,GI50,MDA-MB-468 breast,> 100 µM
same,TGI,MDA-MB-468 breast,> 100 µM
same,GI50,HT29 colon,> 100 µM
same,TGI,HT29 colon,> 100 µM
same,GI50,DU-145 prostate,> 100 µM
same,TGI,DU-145 prostate,> 100 µM
same,GI50,ACHN renal,> 100 µM
same,TGI,ACHN renal,> 100 µM
same,GI50,OVCAR-5 ovarian,> 100 µM
same,TGI,OVCAR-5 ovarian,> 100 µM
same,GI50,NCI/ADR-RES ovarian,> 100 µM
same,TGI,NCI/ADR-RES ovarian,> 100 µM
same,GI50,SK-MEL-28 melanoma,> 100 µM
same,TGI,SK-MEL-28 melanoma,> 100 µM
